Laboratory results taken from US7718394B2, “Methods for diagnosis and monitoring of neurological disease by detection of an encephalotoxin” (priority 2003, dated 2010).
“Also recorded” adds a separate entry of the source.

Experiment: Inactivation of encephalotoxin by nitrous acid, heparin lyases and sulfatases (loss of neurotoxic activity)
Type: biochemical
Method: Structural characterization and inactivation of encephalotoxin (isolated by organic extractions, gel filtration, and sequential C18 HPLC from Aβ-stimulated microglial cell line BV2) was performed by various nitrous acid cleavage protocols. […] Traditionally, heparin lyase I acts primarily on heparin-containing GlcNS(1→4)IdoA2S sequences and heparin lyase III on HS primarily at a GlcNAc(1→4)IdoA or GlcNAc(1→4)GlcA sequence.
1 ml of CSF was fractionated by adsorption chromatography, dried under vacuum, and reconstituted in artificial CSF comprising electrolytes, such as NaCl, and glucose. Increasing amounts of fractionated toxin (range 0.1 to 500 ul equivalents of original sample volume) were added to triplicate cultures. Results were plotted as volume vs. % neuron kill (with kill calculated as % loss of immuno-stained hippocampal neurons against untreated control cultures). […] In order to compare different populations, a CSF Neurotoxicity Index was developed to assign scores that reflect level of neurotoxin. This index was calculated as an ED50 (the equivalent CSF volume that yields 50% of the maximal level of neuron killing).

In the case of `O=NO` [nitrous acid], the “inactivation of encephalotoxin released by BV2 microglia” value (encephalotoxin from Aβ-stimulated microglial cell line BV2, FIG. 1A) was “inactivated; also recorded: eliminated”, the “inactivation of encephalotoxin recovered from lumbar CSF of subject with AD” value (lumbar CSF, AD, FIG. 1C) was “inactivated” and the “inactivation of encephalotoxin found in ventricular CSF of AD brain” value (ventricular CSF of AD brain, FIG. 1B) was “inactivated”.
